This is an account of results in patent US9714247B2, “Multiple kinase pathway inhibitors” (Mannkind Corporation, priority 2012, dated 2017).

SMILES strings stand for the structures. pEC50, pIC50: −log10 of the molar value. Read-outs that look alike come from different tables or passages of the source.

Test [1] has as its target T1, Lyn (Homo sapiens (Human), UniProt P07948). The experiment in a line: biochemical.
The target of test [2] is T2, Src (Homo sapiens (Human), UniProt P12931). The experiment in a line: biochemical.
T2 sequence (P12931 whole entry, looked up): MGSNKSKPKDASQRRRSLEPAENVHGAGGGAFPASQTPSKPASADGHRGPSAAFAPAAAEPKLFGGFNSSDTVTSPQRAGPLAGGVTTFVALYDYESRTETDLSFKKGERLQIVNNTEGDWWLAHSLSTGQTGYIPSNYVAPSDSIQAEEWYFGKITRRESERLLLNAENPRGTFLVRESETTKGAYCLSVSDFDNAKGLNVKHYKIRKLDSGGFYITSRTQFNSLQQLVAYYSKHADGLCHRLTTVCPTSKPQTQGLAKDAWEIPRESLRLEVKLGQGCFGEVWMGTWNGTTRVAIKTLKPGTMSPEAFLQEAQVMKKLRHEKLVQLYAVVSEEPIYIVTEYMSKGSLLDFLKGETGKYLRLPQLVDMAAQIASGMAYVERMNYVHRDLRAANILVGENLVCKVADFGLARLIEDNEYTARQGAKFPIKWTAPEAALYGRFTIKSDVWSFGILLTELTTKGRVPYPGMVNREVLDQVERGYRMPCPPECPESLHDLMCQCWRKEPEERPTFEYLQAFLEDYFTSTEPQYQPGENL
Another test concerns DoHH2. The experiment in a line: CellTiter-Glo proliferation/viability assay. It is filed as cell-based, human. To be noted: Homo sapiens, DOHH-2.
Test [3] concerns the target T1, Lyn. As to conditions: read-out: Lyn IC50.
The subject of another test is Ramos. The experiment in a line: CellTiter-Glo proliferation/viability assay. To be noted: Homo sapiens, Ramos, read-out: Ramos EC50. It is filed as cell-based, human.
Test [4] deals with T2, Src. To be noted: read-out: Src IC50.
The test system of another test is DoHH2 cells. As to conditions: treated 24 hours.
Another test has as its target BTK (Homo sapiens (Human), UniProt Q06187).
Test [5] relates to PLCγ2 phosphorylation in Ramos cells. The experiment in a line: PLCγ2 phosphorylation by flow cytometry. To be noted: Homo sapiens, flow cytometry, anti-phospho PLCγ2 (Tyr1217), four concentrations, read-out: Inhibition of phosphorylation of PLC-γ2 EC50. It is filed as cell-based, human. How it is done:
Ramos cells were cultured in RPMI 1640 media with 10% FBS and were starved overnight (18 h) in 1% FBS containing media and on the next day pretreated with inhibitor for 2 h before stimulation. Cells were stimulated to induce BTK network dependent signal transduction pathways using mouse anti-human IgM (final concentration 10 ug/ml; Invitrogen) antibodies and 3.3 mM H2O2 mixture for 2 minutes followed by F(Ab) fragment that cross-linked the anti-IgM antibody (final concentration 10 ug/ml), and 3.3 mM H2O2 for 8 minutes. Cell lysates were prepared in lysis buffer containing protease and phosphatase inhibitors, quantified using the BCA protein assay kit (Pierce) and used for Western blotting. Antibodies specifically targeted to the molecules of interest, PLCγ2 phosphorylated at Tyr1217 and total PLCγ2, (Cell Signaling Technology) were used in a standard Western blotting procedure.
PLCγ2 phosphorylation was also assessed by flow cytometry. Cells were similarly stimulated and following stimulation, Cytofix buffer (Becton Dickinson) was added, cells were centrifuged and the cell pellets incubated on ice with Phosflow perm buffer III (Becton Dickinson). These cell pellets were washed with Perm/Wash buffer (Becton Dickinson); resuspended and labeled for flow cytometry analysis in a staining mixture containing Perm/Wash buffer and PE-labeled anti-phosphoPCLγa2 (Tyr1217) antibody (Becton Dickinson). The samples were washed with Perm/Wash buffer and analyzed on a FACS Calibur flow cytometer using CellQuest Pro software. As mentioned for the Western blot experiments, phosphorylation of PLCγ2 at Tyr1217 along with Tyr753, Tyr759 and Tyr1197 is correlated with increased PLCγ2 activity. The readout for BTK network signaling was inhibition of phosphorylation of PLCγ2. Cells were gated to exclude dead or dying cells. Fluorescence signals from the antibody staining were plotted in logarithmic units and data was analyzed using Cellquest Pro software. […] An ED50 was calculated based on the geometric mean of fluorescence intensity observed for treatment for four different concentrations of the inhibitors (see Table 7 and FIG. 6). […] Thus treatment with amino naphthyridinones inhibits PLCγ2 phosphorylation consistent with inhibition of BTK and/or LYN activity.
Following stimulation, cells were prepared for analysis by flow cytometry as described above. In short, cells were fixed and permeabilized using Cytofix buffer, Phosflow perm buffer and Perm/Wash buffer (Becton Dickinson). The cells were stained with PE-labeled anti-phosphoPCLγ2 (Tyr759) antibody (Becton Dickinson) and analyzed on a FACS Calibur flow cytometer using CellQuest Pro software. […] Thus aminonaphthyridinones are useful for the indirect inhibition of PLCγ2 phosphorylation.

[6] abbreviates: Table 4, DoHH2 cells, read-out: EC50 (Proliferation).

T1 sequence (P07948 whole entry): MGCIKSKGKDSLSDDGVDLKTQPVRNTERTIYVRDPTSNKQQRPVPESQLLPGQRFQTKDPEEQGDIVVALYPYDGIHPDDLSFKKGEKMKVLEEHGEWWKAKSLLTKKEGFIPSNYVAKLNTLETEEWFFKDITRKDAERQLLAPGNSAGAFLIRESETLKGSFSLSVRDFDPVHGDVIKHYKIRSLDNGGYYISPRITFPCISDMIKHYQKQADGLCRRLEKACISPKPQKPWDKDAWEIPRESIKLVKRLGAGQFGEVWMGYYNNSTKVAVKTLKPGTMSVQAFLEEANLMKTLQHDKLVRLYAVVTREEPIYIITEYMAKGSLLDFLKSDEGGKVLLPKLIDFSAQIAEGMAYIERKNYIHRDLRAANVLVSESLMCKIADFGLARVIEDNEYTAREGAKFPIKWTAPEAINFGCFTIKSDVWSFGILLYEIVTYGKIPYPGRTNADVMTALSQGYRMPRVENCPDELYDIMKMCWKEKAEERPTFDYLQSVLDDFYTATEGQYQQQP
Chain of BTK (Q06187 whole entry): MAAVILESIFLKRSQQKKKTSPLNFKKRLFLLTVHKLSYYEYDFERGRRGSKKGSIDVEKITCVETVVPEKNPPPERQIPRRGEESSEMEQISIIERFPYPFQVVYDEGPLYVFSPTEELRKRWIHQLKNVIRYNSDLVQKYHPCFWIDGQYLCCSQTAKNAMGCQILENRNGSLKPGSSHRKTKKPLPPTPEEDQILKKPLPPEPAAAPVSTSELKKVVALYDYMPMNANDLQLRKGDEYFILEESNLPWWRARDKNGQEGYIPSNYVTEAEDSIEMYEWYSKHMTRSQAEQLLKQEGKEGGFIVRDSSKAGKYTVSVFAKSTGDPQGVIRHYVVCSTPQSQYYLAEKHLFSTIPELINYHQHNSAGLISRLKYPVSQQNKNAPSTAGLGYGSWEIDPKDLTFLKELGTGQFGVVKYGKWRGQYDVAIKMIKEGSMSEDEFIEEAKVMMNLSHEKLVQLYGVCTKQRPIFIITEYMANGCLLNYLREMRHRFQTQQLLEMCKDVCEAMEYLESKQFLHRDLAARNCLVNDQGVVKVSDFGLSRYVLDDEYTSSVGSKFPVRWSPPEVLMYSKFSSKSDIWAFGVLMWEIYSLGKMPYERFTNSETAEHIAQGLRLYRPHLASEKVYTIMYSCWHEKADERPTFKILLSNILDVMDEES

In the case of `CCN(CC)CCOc1ccc(Nc2cc3c(cn2)cc(C(C)C)c(=O)n3-c2ccccc2)nc1` [Compound 18, 7-[5-(2-Diethylamino-ethoxy)-pyridin-2-ylamino]-3-isopropyl-1-phenyl-1H-[1,6]naphthyridin-2-one], the pIC50 against Lyn [1], at Src [2] and on Lyn [3] was 6.00 to 7.00 throughout. In addition, the pEC50 was more than 6.00 with DoHH2 (48 hrs, read-out: DoHH2 EC50); more than 6.00 in the test on DoHH2 (setting [6]); less than 5.00 in the test with Ramos (48 h).
Take `CCc1cc2cnc(Nc3ccc(C)cn3)cc2n(CC)c1=O` [Compound 19, 1,3-Diethyl-7-(5-methyl-pyridin-2-ylamino)-1H-[1,6]naphthyridin-2-one]: the pIC50 was less than 5.30 on Src [4], less than 5.30 at Lyn [3] and 6.00 to 7.00 against BTK. In addition, the “Effect on Cell Cycle” value in the test on DoHH2 cells was “No Arrest”. Further, the pEC50 was 5.00 to 6.00 with DoHH2 (48 hrs, read-out: DoHH2 EC50); 5.00 to 6.00 in the test with DoHH2 (setting [6]); 5.00 to 6.00 in the test with Ramos (48 hrs).
As to `CCn1c(=O)c(-c2ccccc2)cc2cnc(Nc3ccc(F)cn3)cc21` [Compound 28, 1-Ethyl-7-(5-fluoro-pyridin-2-ylamino)-3-phenyl-1H-[1,6]naphthyridin-2-one], the pIC50 on Src [4], on Lyn [3] and on BTK (read-out: BTK IC50) was less than 5.30 each time. In addition, the “Effect on Cell Cycle” value in the test on DoHH2 cells is recorded as “No Arrest”. The pEC50 with DoHH2 (48 hrs, read-out: DoHH2 EC50) is 5.00 to 6.00; in the test with DoHH2 (setting [6]) it was 5.00 to 6.00; in the test with Ramos (48 hrs) it was 5.00 to 6.00.
Consider `CCn1c(=O)c(-c2ccccc2C)cc2cnc(Nc3ccc(C)cn3)cc21` [Compound 45, 1-ethyl-7-(5-methylpyr—idin-2-ylamino)-3-o-tolyl-1,6-naphthyridin-2(1H)-one], for which the negative logarithm of the IC50 (pIC50) on Lyn [1], on Src [2], on Lyn [3], against BTK and at BTK (read-out: BTK IC50) was 6.00 to 7.00 throughout. For the same compound, the pEC50 in the test on DoHH2 (48 hrs, read-out: DoHH2 EC50) was less than 5.00; in the test with Ramos (48 h) it was less than 5.00.
Take `CCN(CC)CCOc1ccc(Nc2cc3c(cn2)cc(C(C)C)c(=O)n3C2CCC2)nc1` [Compound 47, 1-Cyclobutyl-7-[5-(2-diethylamino-ethoxy)-pyridin-2-ylamino]-3-isopropyl-1H-[1,6]naphthyridin-2-one]: the “Effect on Cell Cycle” value in the test with DoHH2 cells is listed as “G1 Arrest”.
With `CCn1c(=O)c(-c2ccccc2)cc2cnc(Nc3ccc(O)cn3)cc21` [Compound 52, 1-Ethyl-7-(5-hydroxy-pyridin-2-ylamino)-3-phenyl-H-[1,6]naphthyridin-2-one], the pIC50 is 6.00 to 7.00 against Lyn [1]; more than 7.00 at Src [4]; 6.00 to 7.00 at Lyn [3]; 6.00 to 7.00 on BTK; 6.00 to 7.00 on BTK (read-out: BTK IC50). Also, in the test on DoHH2 cells, the “Effect on Cell Cycle” value is on record as “G1 Arrest”. The pEC50 was 5.00 to 6.00 with DoHH2 (48 hrs, read-out: DoHH2 EC50); 5.00 to 6.00 in the test on DoHH2 (setting [6]); less than 5.00 in the test on Ramos (48 hrs).
As to `CCn1c(=O)c(-c2ccccc2)cc2cnc(Nc3ccc(NCCO)cn3)cc21` [Compound 66, 1-Ethyl-7-[5-(2-hydroxy-ethylamino)-pyridin-2-ylamino]-3-phenyl-1H-[1,6]naphthyridin-2-one], the values for the negative-log IC50 (pIC50) at Src [4], on Lyn [3] and on BTK were more than 7.00, more than 7.00 and 6.00 to 7.00, respectively. The “Effect on Cell Cycle” value in the test with DoHH2 cells was “G1 Arrest”. Besides, the pEC50 in the test with DoHH2 (48 hrs, read-out: DoHH2 EC50) is more than 6.00; with DoHH2 (setting [6]), more than 6.00; with Ramos (48 h), 5.00 to 6.00.
Consider `CCn1c(=O)c(-c2ccccc2)cc2cnc(Nc3ccc(NCCN(C)C)cn3)cc21` [Compound 67, 7-[5-(2-Dimethylamino-ethylamino)-pyridin-2-ylamino]-1-ethyl-3-phenyl-1H-[1,6]naphthyridin-2-one], for which the values for the pIC50 against Src [2] and at Lyn [3] were 5.30 to 6.00 and more than 7.00, respectively. In addition, in the test with DoHH2 cells, the “Effect on Cell Cycle” value is given as “G1 Arrest”. In addition, the pEC50 with DoHH2 (48 hrs, read-out: DoHH2 EC50) is more than 6.00; with DoHH2 (setting [6]) it was more than 6.00; in the test on Ramos (48 hrs), 5.00 to 6.00.
Consider `CCn1c(=O)c(C(C)(C)O)cc2cnc(Nc3ccc(C)cn3)cc21` [Compound 69], for which the values for the pIC50 at Src [4], on Lyn [3] and at BTK (read-out: BTK IC50) were more than 7.00, less than 5.30 and less than 5.30, respectively. Also, the “Effect on Cell Cycle” value in the test with DoHH2 cells is recorded as “No Arrest”. Moreover, the pEC50 in the test on DoHH2 (48 hrs, read-out: DoHH2 EC50) is less than 5.00; with DoHH2 (setting [6]), less than 5.00; in the test on Ramos (48 hrs), less than 5.00.
As for `O=c1c(-c2c(F)cccc2F)cc2cnc(Nc3ccc(F)cn3)cc2n1C1CCCC1` [Compound 77, 1-cyclopentyl-3-(2,6-difluorophenyl)-7-((5-fluoropyridin-2-yl)amino)-1,6-naphthyridin-2(1H)-one], the pIC50 at Src [4] and at Lyn [3] was more than 7.00 in each case. In addition, in the test with DoHH2 cells, the “Effect on Cell Cycle” value is on record as “G1 Arrest”. For the same compound, the pEC50 was more than 6.00 in the test on DoHH2 (48 hrs, read-out: DoHH2 EC50); more than 6.00 in the test on DoHH2 (setting [6]); less than 5.00 in the test with Ramos (48 hrs).
Regarding `CN1CCC(n2c(=O)c(-c3c(F)cccc3F)cc3cnc(Nc4ccc(F)cn4)cc32)CC1` [Compound 79, 3-(2,6-difluorophenyl)-7-((5-fluoropyridin-2-yl)amino)-1-(1-methylpiperidin-4-yl)-1,6-naphthyridin-2(1H)-one], the results for the pIC50 on Src [4] and at Lyn [3] were 5.59 and more than 7.00, respectively. Further, in the test with DoHH2 cells, the “Effect on Cell Cycle” value is “G1 Arrest”. The pEC50 was more than 6.00 in the test on DoHH2 (48 hrs, read-out: DoHH2 EC50); more than 6.00 in the test with DoHH2 (setting [6]); 5.00 to 6.00 with Ramos (48 hrs).
With `O=c1c(-c2c(F)cccc2F)cc2cnc(Nc3ccc(F)cn3)cc2n1C1CCOC1` (stereo not drawn) [Compound 83, 3-(2,6-difluorophenyl)-7-((5-fluoropyridin-2-yl)amino)-1-(tetrahydrofuran-3-yl)-1,6-naphthyridin-2(1H)-one], the pIC50 at Src [4] and at Lyn [3] was more than 7.00 each time. Moreover, the pEC50 in test [5] was 6.35; in the test with DoHH2 (48 hrs, read-out: DoHH2 EC50), more than 6.00; in the test with Ramos (48 h) it was 5.00 to 6.00.
Turning to `CCn1c(=O)c(I)cc2cnc(Nc3ccc(C)cn3)cc21` [Compound 89], the pIC50 at Src [4], on Lyn [3] and on BTK (read-out: BTK IC50) was less than 5.30 each time. For the same compound, the “Effect on Cell Cycle” value in the test on DoHH2 cells is “G1 Arrest”. Moreover, the pEC50 is more than 6.00 in the test with DoHH2 (48 hrs, read-out: DoHH2 EC50); more than 6.00 in the test on DoHH2 (setting [6]); more than 6.00 with Ramos (48 hrs).
For the compound `O=c1c(-c2c(F)cccc2F)cc2cnc(Nc3ccc(F)cn3)cc2n1CCO` [Compound 125, 3-(2,6-difluorophenyl)-7-((5-fluoropyridin-2-yl)amino)-1-(2-hydroxyethyl)-1,6-naphthyridin-2(1H)-one], the negative logarithm of the IC50 (pIC50) against Lyn [1], against Src [2] and against BTK was 6.00 to 7.00 each time. The pEC50 with DoHH2 (48 hrs, read-out: DoHH2 EC50) was more than 6.00; in the test on Ramos (48 h) it was less than 5.00.
As for `NCCn1c(=O)c(-c2c(F)cccc2F)cc2cnc(Nc3ccc(F)cn3)cc21` [Compound 127, 1-(2-aminoethyl)-3-(2,6-difluorophenyl)-7-((5-fluoropyridin-2-yl)amino)-1,6-naphthyridin-2(1H)-one], the pIC50 at Lyn [1] is 6.00 to 7.00; against Src [2] it was 6.00 to 7.00; on BTK (read-out: BTK IC50) it was more than 7.00. The pEC50 is 5.00 to 6.00 with DoHH2 (48 hrs, read-out: DoHH2 EC50) and less than 5.00 in the test with Ramos (48 hrs).
Take `COCCn1c(=O)c(C(C)C)cc2cnc(Nc3ccc(F)cn3)cc21` [Compound 128, 7-((5-fluoropyridin-2-yl)amino)-3-isopropyl-1-(2-methoxyethyl)-1,6-naphthyridin-2(1H)-one]: the pIC50 against Lyn [1], on Src [2] and at BTK was 5.30 to 6.00 each time. Besides, the pEC50 is 5.00 to 6.00 in the test on DoHH2 (48 hrs, read-out: DoHH2 EC50) and less than 5.00 in the test on Ramos (48 hrs).
